pIC50: −log10 of the molar value. Entries after “also recorded” stand apart in the source; their conditions may differ.
Assays:
97 kinases = assay: Eurofins DiscoverX ScanEDGE kinase panel; assay type: biochemical; settings: compound no. 69 at 3 μM; saracatinib stock 30 μM = 1000× testing concentration; activity = <35% of control
From the text: 69 and compound no. […] Since Fyn was not included in that panel, a custom panel was completed for Fyn kinase activity.

[1] = Phase IIa, van Dyck et al. 2019; cited from earlier work
Tau-FynSH3 interaction = Tau-FynSH3 interaction (Homo sapiens (Human), UniProt P10636); assay: Tau-FynSH3 AlphaScreen; assay type: binding; settings: Table 3; read-out: Alpha screen IC50
From the text: Human Fyn-SH3 domain with GST-tag at the N-terminus and a Strep-tag II ([…]) at the C-terminus (GST-Fyn-SH3-Strep) was cloned into pPR-IBA1 vector (IBA Lifesciences) (Cochran, et al. (2014) J. Biomol. Screen. 19, 1338-1349). Codon-optimized human 4R2N Tau for E. coli expression with a Strep-tag II at the C-terminus (His-Tau-Strep) was cloned into pET-28a(+) vector (Novagen). The constructs were transformed into E. coli BL-21(DE3) competent cells (Novagen). For GST-Fyn-SH3-Strep purification, a single colony was inoculated in Luria-Bertani (LB) broth at 37° C. overnight. 10 mL cell culture was added into 500 mL LB medium and cultured at 37° C. 0.5 mM Isopropyl β-D-1-thiogalactopyranoside (IPTG) was added into the culture when OD600 reached 0.7. Cells were further cultured at 25° C. for 4 hours and harvested. Cell pellet was resuspended in lysis buffer (20 mM Tris pH 7.9, 300 mM NaCl, 1 mM TCEP) with 1 tablet of EDTA-free protease inhibitors (ThermoFisher) and 1 mg/ml lysozyme. Cells were disrupted by sonication and debris was removed by centrifugation at 9500 rpm for 1 hour. Supernatant was loaded onto a glutathione-sepharose column (Cytiva). The column was washed in lysis buffer and protein eluted in lysis buffer containing 25 mM reduced glutathione. For His-Tau-Strep protein purification, cells were inoculated in LB broth medium and cultured at 37° C. overnight. A 10 mL overnight culture was added to 500 mL of auto-induction medium (Studier, F. W. (2005) Protein Expr Purif 41, 207-34) and cells were cultured at 37° C. for about 5 hours. The temperature was lowered to 18° C., and cells were cultured overnight. Cells were harvested and resuspended in lysis buffer with 20 mM imidazole, protease inhibitors, and lysozyme. Cells were disrupted by sonication and cell pellets were spun down at 9500 rpm for 1 hour. Supernatant was loaded onto Ni-NTA column (Cytiva) and the column was washed in lysis buffer with 20 mM imidazole. His-Tau-Strep protein was eluted in lysis buffer containing 400 mM imidazole. Both eluted GST-Fyn-SH3-Strep and His-Tau-Strep protein solutions were passed through G-25 desalting column (Cytiva) with lysis buffer and loaded onto high capacity Strep-Tactin column (IBA Lifesciences). The columns were washed in Buffer W (IBA Life sciences) and proteins were eluted in Buffer E (IBA life sciences). The eluted proteins were passed through G-25 desalting column again. Both GST-Fyn-Strep and His-Tau-Strep proteins were concentrated and diluted 1:1 in ethylene glycol as a cryoprotectant for storage at −80° C.
AlphaScreen was conducted with 10 µg/mL of glutathione donor beads (PerkinElmer, Waltham, MA) and nickel chelate acceptor beads (PerkinElmer) in 10 mM Bis-Tris (pH 7.0), 1 mM TCEP, 0.02% casein, and 0.1% Tween-20. Compounds were plated first followed by addition of one the proteins at 600 nM and incubation for 30 min. The second protein was added and incubated for 30 mn, then the beads were added simultaneously and the final mixture was incubated for 2 hours. Experiments were conducted in 384-well plates (6007290; PerkinElmer) and results were read on a PHERAstar plate reader (BMG Labtech, Cary, NC).
˜50,000 compounds from the Enamine and Southern Research libraries were screened to identify Tau-FynSH3 interaction inhibitors using an AlphaScreen assay (Cochran, et al. (2014) J. Biomol. Screen. 19, 1338-1349). Compounds that were >3 standard deviations above mean inhibition were selected, yielding 1,852 hits (FIG. 1A). […]. These 39 compounds were tested in a live-cell BRET assay to measure Tau-Fyn interaction in cells. […]. Screen. 19, 1338-1349).

[2] = Metabolic stability in mouse liver microsomes; assay type: in vitro ADME; settings: mouse, liver microsomes, Table 3, read-out: ADME t1/2 (min): MLMt1/2
Solubility = assay type: physicochemical; settings: Table 3
[3] = Metabolic stability in human liver microsomes; assay type: in vitro ADME; settings: Table 3, read-out: ADME t1/2 (min): HLMt1/2
From the text: (§1) A computational analysis of the top five hits was then completed to assess the physical attributes of the compounds emerging from the HTS. The target profile for drug-like properties included evaluation of molecular weight (MW), total polar surface area (PSA, the surface sum of all polar atoms on the molecule), solubility, metabolic stability, and partition coefficient (LogD). In general, MW<[…] and PSA <70 Å^2 were targeted, which generally allows for blood-brain barrier (BBB) permeability. Compounds with PSA >100 A^2 are generally poor at permeating cell membranes. Solubility was targeted at >10 μM at pH 7.4 and 40-60% of compound remaining after 60 minutes of incubation in mouse or human liver microsomes (an indicator of compound stability after first-pass metabolism). LogD is the log of the ratio of concentrations of a compound in two immiscible solvents at equilibrium. Values ranging from 2-4 were targeted, typical for CNS drugs. Based on these criteria, compound no. 55 was selected as the top hit for optimization. Compound no.

primary rat neurons = assay: Modified MTT assay of Aβ toxicity in primary neurons; assay type: cell-based; settings: Table 3; Aβ toxicity in primary neurons
From the text: Primary neuron cultures: All animal procedures were approved by the Institutional Animal Care and Use Committee at the University of Alabama at Birmingham (UAB). As before (Rush, et al. (2020) Neurobiol Dis 134, 104668; Voskobiynyk, et al. (2020) eLife 9, e57354), primary rat neurons were isolated from timed-pregnant Sprague-Dawley rats. Briefly, dams were euthanized with isoflurane anesthesia asphyxiation, and hippocampal tissue was isolated from E19 embryos in Hibernate E, then digested in papain for 10 minutes at 37° C. Neurons were triturated into a single cell suspension in Neurobasal supplemented with B-27, L-Glutamine, and 10% FBS, then plated in 96-well plates coated with PDL and laminin at 30,000 neurons per well in 200 uL medium or in 24-well coated plates with or without coverslips at 50,000 per well. Cultures were maintained at 37° C. with 5% CO2. Twenty-four hours after plating (DIV1), two 50% media changes with Neurobasal plus B-27 and L-Glutamine without FBS, and 5 μM cytosine β-D-arabinofuranoside was added to prevent glial proliferation. 50% media changes were performed at DIV7 and DIV14 with serum-free supplemented Neurobasal and experiments were started at DIV19.
Aβ oligomer preparation: As before (Rush, et al. (2020) Neurobiol Dis 134, 104668), lyophilized recombinant Aβ42 was dissolved in HFIP, dried overnight, then stored at −20° C. until oligomerization. To oligomerize, Aβ was dissolved in DMSO to 1 mM, then diluted to 100 µM in PBS, then sonicated and left on ice for 24 hours. Immediately prior to use, Aβ was centrifuged at 4° C. for 10 minutes at 14,000×g. Vehicle was prepared as well in identical fashion except lacking the Aβ peptide.
Aβ toxicity assays: The modified MTT and MAP2 assays were adapted from a recent study (Rush, et al. (2020) Neurobiol Dis 134, 104668). Briefly, at DIV19, media on the neurons was reduced to […], then compound was added to final concentration of 0 μM, 0.3 μM, 3 μM, or 15 μM with even amounts of DMSO. After 90-minute pretreatment with compound, 2.5 μM Aβ was added.
The modified MTT assay was performed 24 hours after Aβ application. 100 μM MTT was applied to neurons and incubated at 37° C. for one hour. Media was removed, then replaced with 15 μL 1.6% Tween20 in PBS and incubated on a shaker at 100 rpm for 5 minutes. The Tween was then removed and transferred to a 384-well clear-bottom plate and replaced with 15 μL isopropanol. Plates were again agitated for 5 minutes at RT, then isopropanol was transferred to the 384-well plate. Absorbance was then read at 590 nm on a plate reader, with 660 nm used as a reference. The ratio of Tween soluble MTT to isopropanol soluble (Tween-insoluble) MTT was calculated for each sample, then normalized to the vehicle group average.

[4] = Partition coefficient (LogD); assay type: physicochemical; settings: Table 3; read-out: ADME LogD
From the text: as §1

[5] = tested on: Sam68(PxxP)-FynSH3 interaction; settings: Oneyama et al. 2002; cited from earlier work
Tau-Fyn interaction = Tau-Fyn interaction (Homo sapiens (Human), UniProt P10636); assay: Tau-Fyn PLA screening in HEK-293 cells; assay type: cell-based; settings: Table 3; Tau-Fyn PLA
Method: Tau-Fyn PLA screening in HEK-293 cells: For Tau-Fyn PLA in HEK-293 cells, we used the same plasmids as before (Rush, et al. (2020) Neurobiol Dis 134, 104668): human 4R2N Tau with an N-terminal mKate2 tag in a pcDNA3.1 vector and human Fyn with an N-terminal Myc tag in a pCMV-Sport6 vector grown in Stellar E. coli. HEK-293 cells were plated on coverslips coated with PDL and laminin in a 24-well plate in DMEM supplemented with 10% FBS and 1% PenStrep. Cells were transfected with 125 ng of Tau-mKate2 and Fyn plasmids with 1.5 μL Fugene in plain DMEM. After 24 hours, compound was applied at 15 μM. Twenty-four hours after application, cells were fixed. PLA protocol was the same as above except for different primary antibodies (Tau5 1:500, Fyn3 1:250). After image acquisition, PLA density was calculated as PLA puncta (as above) divided by cell area to account for differences in confluency. Cell area was defined with ImageJ as % Area after theresholding Tau-mKate2 fluorescence because it filled the cells evenly. Puncta/cell area was then normalized to vehicle-treated slides from that experiment.

Sequence of Tau-FynSH3 interaction (P10636 other isoform, or with tags, fused parts or gaps): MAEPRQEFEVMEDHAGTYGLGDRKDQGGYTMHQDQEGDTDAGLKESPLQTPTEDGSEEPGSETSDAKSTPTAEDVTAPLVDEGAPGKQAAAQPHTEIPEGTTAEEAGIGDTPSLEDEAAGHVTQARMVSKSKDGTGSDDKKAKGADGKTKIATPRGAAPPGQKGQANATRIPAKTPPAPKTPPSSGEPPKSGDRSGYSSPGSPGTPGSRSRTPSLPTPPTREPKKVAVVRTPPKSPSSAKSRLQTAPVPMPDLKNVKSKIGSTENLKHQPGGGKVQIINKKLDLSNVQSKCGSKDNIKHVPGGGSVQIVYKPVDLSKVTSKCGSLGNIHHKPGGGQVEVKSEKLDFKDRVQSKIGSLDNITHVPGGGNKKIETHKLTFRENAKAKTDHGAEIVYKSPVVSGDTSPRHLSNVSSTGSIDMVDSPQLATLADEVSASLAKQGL
Sequence of Tau-Fyn interaction (P10636 other isoform, or with tags, fused parts or gaps): as above

Row | Compound | kinase inhibition, panel of 97 kinases (97 kinases) | clinical benefit in AD [1] | pIC50 (Tau-FynSH3 interaction) | half-life [2] | ADME Sol (μM) (Solubility) | half-life [3] | MTT (primary rat neurons) | logD [4] | Sam68(PxxP)-FynSH3 interaction [5] | PLA (Tau-Fyn interaction)
1 | CN1CCN(CCOc2cc(OC3CCOCC3)c3c(Nc4c(Cl)ccc5c4OCO5)ncnc3c2)CC1 [saracatinib, reference compound] | inhibited several Src family kinases; also recorded: inhibits Src, Fyn, Abl, and EGFR kinase activity | showed no clinical benefit in AD at a tolerable dose |  |  |  |  |  |  |  | 
2 | O=C(CCN1C(=O)CSc2cc(Cl)ccc21)Nc1nnc(-c2ccccn2)[nH]1 [compound 8, 3-(7-CHLORO-3-OXO-2H-BENZO[B][1,4]THIAZIN-4(3H)-YL)-N-(5-(PYRIDIN-2-YL)-4H-1,2,4-TRIAZOL-3-YL)PROPANAMIDE] |  |  | 5.57 | 18 min | Sol = 24 μM | 62 min | Active | 2.3 |  | 
3 | UCS15A |  |  |  |  |  |  |  |  | inhibits Sam68(PxxP)-FynSH3 interaction | 
4 | O=C(CCN1C(=O)CSc2cc(F)ccc21)Nc1nnc(-c2ccccn2)[nH]1 [compound 7, 3-(7-FLUORO-3-Oxo-2H-BENZO[B][1,4]THIAZIN-4(3H)-YL)-N-(5-(PYRIDIN-2-YL)-4H-1,2,4-TRIAZOL-3-YL)PROPANAMIDE] |  |  | 5.72 | 22 min | Sol = 69 μM | 78 min |  | 2 |  | 
5 | COc1ccc2c(c1)N(CC(=O)Nc1nnc(-c3ccccn3)[nH]1)C(=O)CS2 [compound 22, 2-(6-METHOXY-3-OXO-2H-BENZO[B][1,4]THIAZIN-4(3H)-YL)-N-(5-(PYRIDIN-2-YL)-4H-1,2,4-TRIAZOL-3-YL)ACETAMIDE] |  |  |  | 56 min | Sol = 80 μM | 150 min | Active | 1.8 |  | Active
6 | O=C(CN1C(=O)CSc2ccc(Cl)cc21)Nc1nnc(-c2ccccn2)[nH]1 [compound 16, 2-(6-CHLORO-3-OXO-2H-BENZO[B][1,4]THIAZIN-4(3H)-YL)-N-(5-(PYRIDIN-2-YL)-4H-1,2,4-TRIAZOL-3-YL)ACETAMIDE] |  |  | 5.59 | 26 min | Sol = 9 μM | 74 min |  | 2.3 |  | 
7 | O=C(Cn1c(=O)sc2ccccc21)Nc1nnc(-c2ccccn2)[nH]1 [compound 26] |  |  | 6.00 | 82 min | Sol = 22 μM | > 300 min |  | 1.5 |  | 

From US20250367209A1 (SOUTHERN RESEARCH INSTITUTE, priority 2022, published 2025)
